# Assay results published in ChEMBL document CHEMBL3832761, “MMV Pathogen Box Bioactivity Data” (2017).
# Experiments:
# [1] = test system: Mycobacterium tuberculosis; assay: AntiMycobacterium tuberculosis activity 1-week GAST/Fe MIC (uM); type: functional; conditions: 168 h
# [2] = test system: Mycobacterium tuberculosis; assay: AntiMycobacterium tuberculosis activity 2-week GAST/Fe MIC (uM); type: functional; conditions: 336 h
# [3] = test system: Mycobacterium tuberculosis; assay: AntiMycobacterium tuberculosis activity 1-week 7H9/ADC/Tw MIC (uM); type: functional; conditions: 168 h
# [4] = test system: Mycobacterium tuberculosis; assay: AntiMycobacterium tuberculosis activity 2-week 7H9/ADC/Tw MIC (uM); type: functional; conditions: 336 h
# [5] = test system: Mycobacterium tuberculosis; assay: AntiMycobacterium tuberculosis activity 2-week Alamar Blue 7H9/ADC/Tw MIC (uM); type: functional; conditions: 336 h
# [6] = test system: Mycobacterium tuberculosis; assay: AntiMycobacterium tuberculosis activity 1-week 7H9/glucose/BSA/Tx MIC (uM); type: functional; conditions: 168 h
# [7] = test system: Mycobacterium tuberculosis; assay: AntiMycobacterium tuberculosis activity 2-week 7H9/glucose/BSA/Tx MIC (uM); type: functional; conditions: 336 h
# [8] = test system: Mycobacterium tuberculosis; assay: AntiMycobacterium tuberculosis activity 1-week 7H9/DPPC/cholesterol/BSA/Tx MIC (uM); type: functional; conditions: 168 h
# [9] = test system: Mycobacterium tuberculosis; assay: AntiMycobacterium tuberculosis activity 2-week 7H9/DPPC/cholesterol/BSA/Tx MIC (uM); type: functional; conditions: 336 h
# [10] = test system: Mycobacterium tuberculosis; assay: AntiMycobacterium tuberculosis activity 1-week 7H9/cholesterol/BSA/Tx MIC (uM); type: functional; conditions: 168 h
# [11] = test system: Mycobacterium tuberculosis; assay: AntiMycobacterium tuberculosis activity 2-week Alamar Blue 7H9/cholesterol/BSA/Tx MIC (uM); type: functional; conditions: 336 h
# [12] = test system: Mycobacterium tuberculosis; assay: (§1) AntiMycobacterium tuberculosis activity day 10 in 7H9/2.5mM butyrate/pH6/0.1mM nitrite MIC90 (uM); type: functional; conditions: 240 h
# [13] = test system: Mycobacterium tuberculosis; assay: AntiMycobacterium tuberculosis activity day 21 in 7H9/2.5mM butyrate/pH6/0.1mM nitrite MIC90 (uM); type: functional; conditions: 504 h
# [14] = test system: Mycobacterium tuberculosis; assay: as §1; type: functional; conditions: 240 h; remark: listed apart in the source
# [15] = test system: Mycobacterium tuberculosis; assay: AntiMycobacterium tuberculosis activity day 21 MIC99 in 7H9/2.5mM butyrate/pH6/0.1mM nitrite MIC99 (uM); type: functional; conditions: 504 h
# [16] = test system: HepG2; assay: HepG2 galactose CC50 (uM) Cytotoxicity; type: functional
# [17] = test system: HepG2; assay: HepG2 glucose CC50 (uM) Cytotoxicity; type: functional
# [18] = test system: Plasmodium falciparum; assay: Antimalarial activity: Asexual Blood Stage Plasmodium falciparum 3D7 IC50 (uM); type: functional, organism-based
# [19] = test system: Plasmodium falciparum; assay: Antimalarial activity: Asexual Blood Stage Plasmodium falciparum Dd2 IC50 (uM); type: functional, organism-based
# [20] = test system: Plasmodium falciparum; assay: Antimalarial activity: Asexual Blood Stage Plasmodium falciparum W2 IC50 (uM); type: functional, organism-based
# [21] = test system: Plasmodium berghei; assay: Antimalarial activity: Liver Stage Plasmodium berghei sporozoite Luciferase assay: inhibition at 10 uM (%); type: functional
# [22] = test system: Plasmodium falciparum; assay: Antimalarial activity: Gametocytes Plasmodium falciparum NF54 Gametocytes Stage V: inhibition at 10 uM (%); type: functional
# [23] = test system: HepG2; assay: Cytotoxicity data HepG2 CC20 (uM); type: functional
# [24] = test system: HepG2; assay: HepG2 inhibition at 10 uM (%) Cytotoxicity; type: functional; conditions: Homo sapiens
# [25] = HL60 CC50 (uM) Cytotoxicity; type: functional; conditions: HL-60
SMILES,MIC [1] [µM],MIC [2] [µM],MIC [3] [µM],MIC [4] [µM],MIC [5] [µM],MIC [6] [µM],MIC [7] [µM],MIC [8] [µM],MIC [9] [µM],MIC [10] [µM],MIC [11] [µM],MIC90 [12] [µM],IC50 [18] [µM],IC50 [19] [µM],IC50 [20] [µM],Inhibition [21] [%],Inhibition [22] [%],CC20 [23] [µM],inhibition at 10 µM [24] [%],CC50 [25] [µM],other results
Cc1ccccc1CN1CCC(O)(c2ccc(Cl)c(C(F)(F)F)c2)CC1,0.3,0.3,0.39,0.39,0.39,0.39,1.2,0.6,0.78,0.6,0.78,3.12,–,–,–,–,–,–,–,–,"MIC90 [13]: 3.12 µM; MIC90 [14]: 12.5 µM; MIC [15]: 25 µM; CC50 ([16]; Homo sapiens, HepG2): > 50 µM; CC50 ([17]; Homo sapiens, HepG2): > 50 µM"
COc1cc(CN2CCC3(C=Cc4ccccc43)CC2)cc2c1OCO2,0.6,0.78,1.2,0.78,0.78,2.3,2.3,1.56,2.3,1.56,2.3,6.25,–,–,–,–,–,–,–,–,"MIC90 [13]: 6.25 µM; MIC90 [14]: 12.5 µM; MIC [15]: 12.5 µM; CC50 ([16]; Homo sapiens, HepG2): > 50 µM; CC50 ([17]; Homo sapiens, HepG2): > 50 µM"
CCN(CC)CCCN1CCN(C(=O)c2cccc(-c3noc(C(F)(F)F)n3)c2)CC1,–,–,–,–,–,–,–,–,–,–,–,–,0.19,0.85,0.31,4,18,>80,0,> 50,–
c1ccc(-c2nc(NC3CCCCC3)cc(C3CC3)n2)nc1,25,25,37,50,37,37,50,25,50,19,9.4,25,–,–,–,–,–,–,–,–,"MIC90 [13]: 50 µM; MIC90 [14]: 50 µM; MIC [15]: > 50 µM; CC50 ([16]; Homo sapiens, HepG2): > 50 µM; CC50 ([17]; Homo sapiens, HepG2): > 50 µM"
CCCS(=O)(=O)N1CCC(CO)(Cc2ccccc2C(F)(F)F)CC1,–,–,–,–,–,–,–,–,–,–,–,–,1.09,0.99,1.55,43,19,>80,0,> 50,–
CC(C)(C)c1cc(C(=O)Nc2cccnc2)cc(C(=O)Nc2cccnc2)c1,–,–,–,–,–,–,–,–,–,–,–,–,0.9,1.63,1.88,12,10,17.2,19,> 50,–
Brc1cncc(-c2cc(NCCCn3ccnc3)nc(-c3ccccc3)n2)c1,12.5,12.5,37,25,12.5,4.7,12.5,6.25,9.4,9.4,6.25,12.5,–,–,–,–,–,–,–,–,"MIC90 [13]: 12.5 µM; MIC90 [14]: > 50 µM; MIC [15]: > 50 µM; CC50 [16]: > 50 µM; CC50 ([16]; Homo sapiens, HepG2): 43.6 µM; CC50 [17]: 28.3 µM; CC50 ([17]; Homo sapiens, HepG2): 16.4 µM"
CC(C)(C)c1cc(C(=O)N2CCN(c3nccnc3C#N)CC2)n(Cc2ccccc2)n1,–,–,–,–,–,–,–,–,–,–,–,–,0.6,1,1.3,42,8,22.9,0,> 50,–
CC(=O)NC[C@H]1CN(c2ccc(N3CCSCC3)c(F)c2)C(=O)O1 [SUTEZOLID],0.2,0.6,1.2,1.2,0.78,0.6,1.2,0.6,1.2,0.39,0.78,0.19,–,–,–,–,–,–,–,–,"MIC90 [13]: 0.39 µM; MIC90 [14]: 0.39 µM; MIC [15]: 0.78 µM; CC50 ([16]; Homo sapiens, HepG2): > 50 µM; CC50 ([17]; Homo sapiens, HepG2): > 50 µM"
Clc1ccc(CCNc2cc(-c3ccccc3)nc3ncnn23)cc1,0.3,1.2,50,> 50,6.25,50,> 50,4.7,> 50,3.13,3.13,6.25,–,–,–,–,–,–,–,–,"MIC90 [13]: 25 µM; MIC90 [14]: > 50 µM; MIC [15]: > 50 µM; CC50 ([16]; Homo sapiens, HepG2): > 50 µM; CC50 ([17]; Homo sapiens, HepG2): > 50 µM"
COc1cccc(-n2nnnc2S(=O)(=O)Cc2ccccc2)c1,1.2,1.56,25,37,25,12.5,37,25,50,25,50,3.12,–,–,–,–,–,–,–,–,"MIC90 [13]: 6.25 µM; MIC90 [14]: 6.25 µM; MIC [15]: 6.25 µM; CC50 [16]: 30.6 µM; CC50 ([16]; Homo sapiens, HepG2): 28.5 µM; CC50 [17]: 17.9 µM; CC50 ([17]; Homo sapiens, HepG2): 19.1 µM"
COc1ccc2nccc(NC(=O)C3CCN(CCc4ccc(Cl)cc4)CC3)c2n1,0.3,0.39,0.39,0.39,0.39,0.39,0.78,0.39,0.78,0.39,0.6,0.39,–,–,–,–,–,–,–,–,"MIC90 [13]: 0.78 µM; MIC90 [14]: > 50 µM; MIC [15]: > 50 µM; CC50 ([16]; Homo sapiens, HepG2): > 50 µM; CC50 ([17]; Homo sapiens, HepG2): > 50 µM"
CC(C)(C)CN1C(=O)C(c2ccccc2)(c2ccccc2)N=C1N,–,–,–,–,–,–,–,–,–,–,–,–,0.8,1.5,> 2,25,2,1.17,0,6.5,–
O=C(c1ccco1)N(CCCn1ccnc1)c1nc2c(Cl)cccc2s1,25,37,≥ 50,50,25,50,37,37,37,12.5,12.5,25,–,–,–,–,–,–,–,–,"MIC90 [13]: 25 µM; MIC90 [14]: > 50 µM; MIC [15]: > 50 µM; CC50 ([16]; Homo sapiens, HepG2): > 50 µM; CC50 ([17]; Homo sapiens, HepG2): > 50 µM"
CS(=O)(=O)Cc1nc2ccccc2oc1=O,0.78,1.56,19,9.4,6.25,9.4,9.4,6.25,6.25,6.25,6.25,3.12,–,–,–,–,–,–,–,–,"MIC90 [13]: 3.12 µM; MIC90 [14]: 12.5 µM; MIC [15]: 12.5 µM; CC50 ([16]; Homo sapiens, HepG2): > 50 µM; CC50 ([17]; Homo sapiens, HepG2): > 50 µM"
O=C1COCc2ccc(Br)cc2N1Cc1ccc(C(F)(F)F)cc1,–,–,–,–,–,–,–,–,–,–,–,–,0.96,3.06,2.26,2,2,38.4,10,> 50,–
O=C(NCCc1ccccc1)c1cc(-c2cccnc2)cnc1NCC1CC1,–,–,–,–,–,–,–,–,–,–,–,–,1.29,2.29,1.4,39,4,12.9,5,> 12.5,–
CCCNC(=O)N1CCC2(CC1)CC(=O)c1cc(C)ccc1O2,–,–,–,–,–,–,–,–,–,–,–,–,2.06,3.12,1.57,3,1,>80,0,> 50,–
OCc1ccc(-c2cncc(Nc3cccc(Cl)c3)c2)cc1,–,–,–,–,–,–,–,–,–,–,–,–,0.03,0.01,–,57,5,20.5,7,> 25,–
CS(=O)(=O)c1cccc(-c2cnc3[nH]cc(-c4ccc(CCC(=O)O)cc4)c3c2)c1,–,–,–,–,–,–,–,–,–,–,–,–,0.5,0.68,0.91,47,38,>80,16,> 50,–
COc1cccc2c(C)nc(N=C(N)N)nc12,–,–,–,–,–,–,–,–,–,–,–,–,1.06,> 2,–,42,0,8.38,20,> 50,–
O=C(Nc1cccc(-c2ccc(NCCCN3CCCC3)nc2)c1)c1ccccc1,–,–,–,–,–,–,–,–,–,–,–,–,0.85,2.74,1.66,25,7,17.2,0,> 50,–
CC(=O)Nc1ccc(NC(=O)c2cc(-c3cc(Cl)ccc3O)n[nH]2)cc1,–,–,–,–,–,–,–,–,–,–,–,–,0.35,0.48,0.51,0,6,>80,7,> 50,–
CN1CCN(c2nccc3[nH]c(-c4cccc(F)c4)cc23)CC1,–,–,–,–,–,–,–,–,–,–,–,–,1.46,2.1,2.63,40,29,10.4,2,> 12.5,–
